How the values were obtained:
mice = assay: Systemic Toxicity: LD50 of compound injected intravenously in mice; assay type: in vivo; details: intravenous, groups of 10 mice
Procedure: (§1) Employing conventional procedures, the following tests were carried out and compared with known commercially available contrast media. The following tables indicate the results.
LD50 (gI/kg bw) of compound injected
intravenously in groups of 10 mice.

rats [1] = assay: Neurotoxicity: neural deficits after intracisternal injections in rats; assay type: in vivo; details: for Deficit Scores: average of 10 rats, 0 = normal; for Neural deficits: rats
Procedure: as §1
tions in rats with chronically implanted
cannulas into the right ventricle.
Deficit scores were calculated on the basis of a preset rating (average o

rats [2] = assay: Aversive conditioning in rats (preference/avoidance after injection into the lateral ventricle); assay type: in vivo; details: for Aversion expressed in relation to Metrizamide: Metrizamide = 1; for % Aversion: injection into the lateral ventricle, average from a group of 10 rats
Procedure: as §1
Aversive conditioning in rats: (Test-
ing for preference/avoidance after an injection
into the lateral ventricle via a chronically im-
planted cannula) (Average from a group of 10 rats)

Blepharisma americ. = assay: Cell Toxicity: LD50 at 4' of a standardized culture of a protozoan; assay type: cell-based; details: for LD50: at 4', standardized culture of Blepharisma americ.
Procedure: as §1
(LD50 at 4' of a standardized culture of a
protozoan Blepharisma americ.)

Water solubility = assay type: physicochemical; details: at 20° C.
Description: (§2) This compound was synthesized as described for the hydroxyacetyl analog (VIIIb). The product was obtained in 69% yield as a colorless glassy solid.

Viscosity = assay type: physicochemical; details: 37° C., 300 mgI/ml
Description: as §2

Row | SMILES | LD50 (mice) | Deficit Scores (rats [1]; 40 mg I) | Deficit Scores (rats [1]; 60 mg I) | Neural deficits (rats [1]; 100 mg I) | Aversion expressed in relation to Metrizamide (rats [2]) | % Aversion (rats [2]) | LD50 (Blepharisma americ.) | Neural deficits (rats [1]; 40 mg I) | Neural deficits (rats [1]; 60 mg I) | Deficit Scores (rats [1]; 100 mg I) | solubility in water (Water solubility) | viscosity (Viscosity) | Conclusion on toxicity (Blepharisma americ.; compared with Iopamidol and Metrizamide)
1 | CC(=O)Nc1c(I)c(C(=O)N[C@H]2C(O)O[C@H](CO)[C@@H](O)[C@@H]2O)c(I)c(N(C)C(C)=O)c1I (stereo partly shown) [Metrizamide, 3-acetamido-5-(N-methylacetamido) triiodobenzoyl derivative of glucosamine, reference compound] | 12.1 gI/kg bw | 25.3 ± 10.1 | 84.2 ± 12.3 | Death | 1 times less aversive | 29.8% | 133 mg I/ml |  |  |  |  |  | 
2 | CN(C(=O)CC(=O)N(C)c1c(I)c(C(=O)NC(CO)C(O)CO)c(I)c(C(=O)NC(CO)C(O)CO)c1I)c1c(I)c(C(=O)NC(CO)C(O)CO)c(I)c(C(=O)NC(CO)C(O)CO)c1I (stereo not drawn) [XVIII, N,N'-bis-Methyl-N,N'-bis [2,4,5-triiodo-3,5-bis-{N,N'-(1,3,4-trihydroxy-threo-but-2-yl)}-carbamoylphenyl]malondiamide] |  | 0 | 0 | Normal |  |  |  | Normal | Normal | 0 |  |  | 
3 | C[C@H](O)C(=O)Nc1c(I)c(C(=O)NC(CO)CO)c(I)c(C(=O)NC(CO)CO)c1I [Iopamidol, N,N'-di(1',3'-dihydroxypropyl-2') 5-L-lactoylamido triiodoisophthaldiamide, reference compound] | 18.7 gI/kg bw | 1.75 ± 0.96 | 22.0 | Death | 1.2 times less aversive | 24.6% | 136 mg I/ml |  |  |  |  |  | 
4 | CC(O)C(=O)Nc1c(I)c(C(=O)NC(CO)C(O)CO)c(I)c(C(=O)NC(CO)C(O)CO)c1I (racemic) [VIIIc, 2,4,6-triiodo-5-(2-DL or L-hydroxypropionylamino)-isophthalic acid-bis-N,N'-(1,3,4-trihydroxy-threo-but-2-yl)-amide] | 21.3 gI/kg bw | 0 | 3.0 ± 1.73 |  | 3.4 times less aversive | 9.4% | 148 mg I/ml | Normal |  | 26 ± 3.2 | > 400 mgI/ml | 6.6 cps | lower toxicity than Iopamidol and Metrizamide
